Laboratory results from patent publication US20230338543A1, “GAMMA-HYDRO[…] AND PROCESSES FOR MAKING AND USING THEM” (Zevra Therapeutics, Inc., priority 2022, published 2023).

Assay: Pharmacokinetics of GHB in plasma after oral gavage of GHB delivering compounds in rats; relative oral bioavailability vs sodium oxybate
Details: vehicle water; for % AUC0-4 hr, relative oral bioavailability vs sodium oxybate / % Cmax, relative oral bioavailability vs sodium oxybate: mean conjugate PK parameter/mean comparator PK parameter
[1] = molar equivalent of 100 mg/kg NaGHB
[2] = dose equivalent to 80 mg/kg NaGHB (extrapolated to 100 mg/kg)
[3] = dose equivalent to 80 mg/kg NaGHB, data extrapolated to 100 mg/kg

Row | Compound | AUC0-4 hr of GHB in plasma [1] | Cmax of GHB in plasma [1] | Tmax of GHB in plasma [1] | % AUC0-4 hr, relative oral bioavailability vs sodium oxybate [1] | % Cmax, relative oral bioavailability vs sodium oxybate [1] | % AUC0-4 hr, relative oral bioavailability vs sodium oxybate [2] | % Cmax, relative oral bioavailability vs sodium oxybate [2] | AUC0-4 hr of GHB in plasma [3] | Cmax of GHB in plasma [3] | Tmax of GHB in plasma (dose equivalent to 80 mg/kg NaGHB)
1 | O=C1CCCO1 [GBL] | 9.04 ng·h/mL | 15.4 ng/mL | 15 min | 27% | 70% | – | – | – | – | –
2 | CCOC(=O)OCCCC(=O)O [O-(ethoxycarbonyl)-GHB] | – | – | – | – | – | 54% | 51% | 19.4 ng·h/mL | 15.0 ng/mL | 21 min
